Experimental data published in PubChem BioAssay AID1918936 (Molecular Pharmacology Branch, DTP, NCI, 2023).
Values joined by “and” are separate entries in the source; they are usually repeats but may differ in a detail not shown here. Identical values can stand only once.

Tested on: 349418-098-R-PDC complex spheroid viability
Test: Anticancer human tumor 349418-098-R-PDC patient-derived lung adenocarcinoma cell line growth inhibition
Conditions: for viability, T/C: stronger effect = lower value
In short: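 Multicellular complex spheroids of tumor cells with human endothelial cells (HUVEC) and mesenchymal stem cells; the LSD1 inhibitor iadademstat was combined with standard-of-care or investigational agents. Top concentration at or near clinical Cmax, half-log dilutions; final DMSO ≤0.25%.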
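Also: spheroids exposed to agents for seven days before readout.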
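For viability, T/C in this document: 100% = DMSO vehicle control wells.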

What does the source list for `CC1COCCN1c1cc(C2(S(C)(=N)=O)CC2)nc(-c2ccnc3[nH]ccc23)n1` (centres undefined) + NC1CCC(NC2CC2c2ccccc2)CC1?
IC50 (curve of first compound, second compound 0.1 µM): 371 nM; IC50 (curve of first compound, second compound 0.316 µM): 508 nM; IC50 (curve of first compound, second compound 1 µM): 487 nM; IC50 (curve of first compound, second compound 3.16 µM): 361 nM; IC50 (curve of first compound, second compound 10 µM): 433 nM; viability, T/C (second compound 0.1 µM, first compound 0.0316 µM): 115%; viability, T/C (second compound 0.1 µM, first compound 0.1 µM): 115%; viability, T/C (second compound 0.1 µM, first compound 0.316 µM): 55.5%; viability, T/C (second compound 0.1 µM, first compound 1 µM): 16.1%; viability, T/C (second compound 0.1 µM, first compound 3.16 µM): 11%; viability, T/C (second compound 0.1 µM, first compound 10 µM): 8.02%; viability, T/C (second compound 0.316 µM, first compound 0.0316 µM): 120%; viability, T/C (second compound 0.316 µM, first compound 0.1 µM): 101%; viability, T/C (second compound 0.316 µM, first compound 0.316 µM): 72.5%; viability, T/C (second compound 0.316 µM, first compound 1 µM): 19.6%; viability, T/C (second compound 0.316 µM, first compound 3.16 µM): 9.52%; viability, T/C (second compound 0.316 µM, first compound 10 µM): 8.34%; viability, T/C (second compound 1 µM, first compound 0.0316 µM): 114%; viability, T/C (second compound 1 µM, first compound 0.1 µM): 104%; viability, T/C (second compound 1 µM, first compound 0.316 µM): 68.6%; viability, T/C (second compound 1 µM, first compound 1 µM): 19.2%; viability, T/C (second compound 1 µM, first compound 3.16 µM): 10.2%; viability, T/C (second compound 1 µM, first compound 10 µM): 7.6%; viability, T/C (second compound 3.16 µM, first compound 0.0316 µM): 116%; viability, T/C (second compound 3.16 µM, first compound 0.1 µM): 113%; viability, T/C (second compound 3.16 µM, first compound 0.316 µM): 53.6%; viability, T/C (second compound 3.16 µM, first compound 1 µM): 18.1%; viability, T/C (second compound 3.16 µM, first compound 3.16 µM): 10.3%; viability, T/C (second compound 3.16 µM, first compound 10 µM): 7.61%; viability, T/C (second compound 10 µM, first compound 0.0316 µM): 107%; viability, T/C (second compound 10 µM, first compound 0.1 µM): 87.3%; viability, T/C (second compound 10 µM, first compound 0.316 µM): 65.7%; viability, T/C (second compound 10 µM, first compound 1 µM): 15.8%; viability, T/C (second compound 10 µM, first compound 3.16 µM): 9.23%; viability, T/C (second compound 10 µM, first compound 10 µM): 5.82%

How did the viability, T/C (compound 0.00949 µM) turn out when `CCN(c1cc(-c2ccc(CN3CCOCC3)cc2)cc(C(=O)NCc2c(C)cc(C)[nH]c2=O)c1C)C1CCOCC1` was run?
The viability, T/C was 91.2% and 96.2%.

And the viability, T/C (compound 0.03 µM)?
The viability, T/C was 100% and 97.8%.

What about the viability, T/C (compound 0.0949 µM) of the same compound?
Its viability, T/C is 93.4% and 87.5%.

What about the viability, T/C (compound 0.3 µM) of the same compound?
Its viability, T/C is 91.6% and 50.8%.

And the viability, T/C (compound 0.949 µM)?
Its viability, T/C is 76.7% and 26.2%.

And the viability, T/C (compound 3 µM)?
Its viability, T/C is 68.7% and 10%.

And the IC50 (curve of compound)?
The IC50 was > 3000 nM and 343 nM.

What does the source list for `CCc1c2c(nc3ccc(O)cc13)-c1cc3c(c(=O)n1C2)COC(=O)[C@]3(O)CC`?
viability, T/C (compound 0.000949 µM): 4.32% and 3.69%; viability, T/C (compound 0.003 µM): 2.63% and 2.24%; viability, T/C (compound 0.00949 µM): 1.82% and 1.28%; viability, T/C (compound 0.03 µM): 1.29% and 1.41%; viability, T/C (compound 0.0949 µM): 1.48% and 2.01%; viability, T/C (compound 0.3 µM): 1.75% and 2.19%; IC50 (curve of compound): < 0.949 nM
